Data from ChEMBL document CHEMBL1154019, “Sulfonamides with the N-alkyl-N'-dialkylguanidine moiety as 5-HT7 receptor ligands” (Bioorg Med Chem Lett, 2009).

Experiments:
[1] = target: T1, 5-hydroxytryptamine receptor 1A (Rattus norvegicus, UniProt P19327); test: Binding affinity to 5HT1A receptor in rat hippocampus; type: tissue-based
T1 sequence (P19327 whole entry): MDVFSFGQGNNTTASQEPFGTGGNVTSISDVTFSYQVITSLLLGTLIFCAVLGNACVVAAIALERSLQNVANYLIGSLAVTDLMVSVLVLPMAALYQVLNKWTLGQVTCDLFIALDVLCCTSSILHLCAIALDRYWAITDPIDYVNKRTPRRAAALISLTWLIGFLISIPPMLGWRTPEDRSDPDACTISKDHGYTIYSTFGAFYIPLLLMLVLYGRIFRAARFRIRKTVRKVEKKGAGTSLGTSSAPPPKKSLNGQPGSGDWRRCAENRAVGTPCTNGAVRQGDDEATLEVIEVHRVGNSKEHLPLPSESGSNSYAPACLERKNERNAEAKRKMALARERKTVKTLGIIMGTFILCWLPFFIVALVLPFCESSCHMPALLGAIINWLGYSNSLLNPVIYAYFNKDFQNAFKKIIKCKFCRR

[2] = target: 5-hydroxytryptamine receptor 2A (Rattus norvegicus, UniProt P14842); test: Binding affinity to 5HT2A receptor in rat cortex; type: tissue-based
[3] = target: 5-hydroxytryptamine receptor 7 (Homo sapiens, UniProt P34969); test: Binding affinity to human cloned 5HT7 receptor expressed in HEK293 cells; type: cell-based
[4] = Selectivity of Ki for human 5HT7 receptor to Ki for rat 5HT1A

Chain of 5-hydroxytryptamine receptor 7 (P34969 whole entry): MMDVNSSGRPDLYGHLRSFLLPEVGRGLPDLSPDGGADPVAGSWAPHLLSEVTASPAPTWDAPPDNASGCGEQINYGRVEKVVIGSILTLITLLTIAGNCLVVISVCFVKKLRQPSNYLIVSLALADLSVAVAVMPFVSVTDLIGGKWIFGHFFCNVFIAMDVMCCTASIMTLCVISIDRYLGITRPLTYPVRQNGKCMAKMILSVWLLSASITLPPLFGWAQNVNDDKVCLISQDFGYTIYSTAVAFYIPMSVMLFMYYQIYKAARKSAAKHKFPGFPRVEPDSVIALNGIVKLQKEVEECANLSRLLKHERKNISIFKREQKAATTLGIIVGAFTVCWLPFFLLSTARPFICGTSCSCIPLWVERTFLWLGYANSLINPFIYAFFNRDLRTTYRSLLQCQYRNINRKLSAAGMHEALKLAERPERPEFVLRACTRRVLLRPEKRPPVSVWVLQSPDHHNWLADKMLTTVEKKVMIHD
Chain of 5-hydroxytryptamine receptor 2A (P14842 whole entry): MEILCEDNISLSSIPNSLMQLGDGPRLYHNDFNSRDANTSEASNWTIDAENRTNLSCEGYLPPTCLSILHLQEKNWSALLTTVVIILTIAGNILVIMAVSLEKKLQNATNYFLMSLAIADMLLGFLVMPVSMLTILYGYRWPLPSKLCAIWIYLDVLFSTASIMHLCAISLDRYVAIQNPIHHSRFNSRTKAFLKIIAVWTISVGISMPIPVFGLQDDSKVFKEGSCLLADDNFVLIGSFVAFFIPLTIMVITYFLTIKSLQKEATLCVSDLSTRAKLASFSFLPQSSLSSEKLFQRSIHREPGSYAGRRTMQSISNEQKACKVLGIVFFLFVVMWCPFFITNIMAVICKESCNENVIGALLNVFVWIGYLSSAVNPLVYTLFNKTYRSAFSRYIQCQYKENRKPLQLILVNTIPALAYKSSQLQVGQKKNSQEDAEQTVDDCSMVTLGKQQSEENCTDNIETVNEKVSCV

Ki [1] [nM]	Ki [2] [nM]	Ki [3] [nM]	Ratio Ki [4]	Structure (SMILES)
35	65			O=S(=O)(c1ccccc1)C1(CCCN2CCc3ccccc3C2)CCC1
4550	160	161		Cc1cccc(S(=O)(=O)NCCN=C(N)N2CCC(c3ccccc3)CC2)c1
17600	1250	276		Cc1cccc(S(=O)(=O)NCCCN=C(N)N2CCC(c3ccccc3)CC2)c1
2080	195	198		NC(=NCCCCNS(=O)(=O)c1cccc2ccccc12)N1CCc2ccccc2C1
> 4000	400	49		CCOc1ccccc1CNC(=N)NC(=O)NC
9860	940	195		COc1ccccc1N1CCN(C(N)=NCCCNS(=O)(=O)c2cccc3ccccc23)CC1
> 10000	> 10000			CC1CCN(CCC2CCCN2S(=O)(=O)c2cccc(O)c2)CC1 (single isomer, unassigned)
520	150			COc1ccccc1N1CCN(C(=O)NC(=N)NCc2cccc3ccccc23)CC1
4.6	85	20		COc1ccccc1N1CCN(CCCNS(=O)(=O)c2ccc3ccccc3c2)CC1
10200	340	140		COc1ccccc1N1CCN(C(=N)NCCCCNS(=O)(=O)c2ccc(C)cc2)CC1
10400	1150	339		COc1ccccc1N1CCN(C(N)=NCCNS(=O)(=O)c2cccc(C)c2)CC1
12000	770	150		Cc1cccc(S(=O)(=O)NCCCCN=C(N)N2CCC(c3ccccc3)CC2)c1
			31	COc1ccccc1N1CCN(C(=N)NCCNS(=O)(=O)c2cccc(C)c2)CC1
1100	148	177		Cc1cccc(S(=O)(=O)NCCN=C(N)N2CCC(C)CC2)c1
